We go through two compounds from patent publication US12129509B2, “Apparatus, systems, and methods for determining the susceptibility of infectious agents to anti-infectives” (priority 2018, dated 2024).

Converted amounts (≈) assume the structure as drawn.

The subject of test [1] is E. coli of an unknown strain. The test is described as follows: pH and ORP growth curves of E. coli with Ciprofloxacin in diagnostic device 102 (FIGS. 7A and 7B). The format is cell-based. From the text: FIGS. 7A and 7B illustrate pH growth curves and ORP growth curves of E. coli in the presence of various concentrations of the antibiotic Ciprofloxacin, respectively. The growth curves were generated using a computing device 158 coupled to a parameter analyzer 156 coupled to the diagnostic device 102. Similar types of growth curves can also be generated using the computing device 158 coupled to the parameter analyzer 156 coupled to the diagnostic device 202.
An inoculum solution 110 comprising E. coli of an unknown strain (e.g., a positive blood culture (PBC) diluted to 5×10^5 colony-forming units (CFU)/mL of E. coli in Mueller Hinton (MH) broth) was introduced to the sample receiving space 112 of the diagnostic device 102. The inoculum solution 110 was allowed to fill the plurality wells 120 of the diagnostic device 102 including the growth control wells 134 and a number of active electrode wells 136. A water immiscible liquid 152 was then introduced into the sample receiving space 112 to seal the wells 120 and the entire diagnostic device 102 was incubated at an elevated temperature.
The computing device 158 generated the growth curves based on changes in the solution characteristics (e.g., changes in pH of the pH electrode wells 126 and changes in ORP of the ORP electrode wells 128) of the inoculum solution 110 within the growth control wells 134 and the various active electrode wells 136. The growth control wells 134 comprised at least one pH electrode well 126 and at least one ORP electrode well 128 devoid of the antibiotic. The active electrode wells 136 comprised dried Ciprofloxacin at concentrations of 2 μg/mL, 4 μg/mL, 8 μg/mL, 16 μg/mL, and 32 μg/mL.
This curve pattern or shape can be attributed to cellular activity undertaken by the active E. coli within the growth control wells 134. FIGS. 7A and 7B also illustrate that the three growth curves generated from measurements of the inoculum solution 110 within the active electrode wells 136 comprising 2 μg/mL and 4 μg/mL of Ciprofloxacin mimicked and followed the growth pattern of the inoculum solution 110 within the growth control wells 134.

The subject of test [2] is E. coli of an unknown strain. The test is described as follows: pH growth curves of E. coli with Levofloxacin in diagnostic device 102 (FIG. 6). In kind it is cell-based. The settings on record: Escherichia coli, E. coli diluted in Mueller Hinton broth, wells with 1, 2 and 4 μg/mL, read-out: minimum inhibitory concentration (MIC). From the text: FIG. 6 illustrates pH growth curves of E. coli in the presence of various concentrations of the antibiotic Levofloxacin. The growth curves were generated using a computing device 158 coupled to a parameter analyzer 156 coupled to the diagnostic device 102. Similar types of growth curves can also be generated using the computing device 158 coupled to the parameter analyzer 156 coupled to the diagnostic device 202. An inoculum solution 110 comprising E. coli of an unknown strain (diluted in Mueller Hinton (MH) broth) was introduced to the sample receiving space 112 of the diagnostic device 102. The inoculum solution 110 was allowed to fill the plurality wells 120 of the diagnostic device 102 including the growth control wells 134 and a number of active electrode wells 136. A water immiscible liquid 152 was then introduced into the sample receiving space 112 to seal the wells 120 and the entire diagnostic device 102 was incubated at an elevated temperature. The computing device 158 generated the growth curves based on a change in the pH of the inoculum solution 110 within a growth control well 134 and three active electrode wells 136. The growth control well 134 comprised a pH electrode 130 within the well and was devoid of the antibiotic. […]

With `O=C(O)c1cn(C2CC2)c2cc(N3CCNCC3)c(F)cc2c1=O` [Ciprofloxacin], the “susceptibility of the strain at the concentration” value is on record as “resistant or not susceptible” in test [1] (Ciprofloxacin 2 μg/mL and 4 μg/mL, curves followed growth control); “intermediate susceptibility” in test [1] (Ciprofloxacin 8 μg/mL, delayed change in pH and ORP). Also, in test [1] (Ciprofloxacin 16 μg/mL and 32 μg/mL, curves substantially flat lines), the “growth of E. coli in active electrode wells” value was “no noticeable growth”. For the same compound, the “susceptibility of the strain (overall)” value in test [1] (based on MIC from pH and ORP growth curves) is given as “generally resistant”.

Regarding `C[C@H]1COc2c(N3CCN(C)CC3)c(F)cc3c(=O)c(C(=O)O)cn1c23` [Levofloxacin], in test [2], the MIC came out at 1 µg/mL (≈ 2.77 µM).
